Counter-ions that a name gives are not always drawn.
Tests used:
[1] = Pharmacokinetics after a single oral dose in healthy male volunteers (plasma, HPLC-MS/MS); type: in vivo, human
Description: (§1) The pharmacokinetics after a single oral dose of the dihydrochloride salt of Compound D ((2R)-1-[3,5-bis(trifluoromethyl)benzoyl]-2-(1H-indol-3-ylmethyl)-4-{[5-(morpholinomethyl)-2H-1,2,3-triazol-4-yl]methyl}piperazine-dihydrochloride) were assessed in healthy male volunteers. Pharmacodynamic effects were also evaluated by measuring the antagonism of Substance P-induced venodialation using the hand vein compliance technique.
Nineteen healthy male non-smokers participated in a randomized, double-blind, placebo-controlled, cross-over study after each gave written informed consent. Only healthy volunteers without concurrent drug use were included in the study. […] Further exclusion criteria were: a history of allergies, known conditions causing endothelial dysfunction as diabetes, hyperlipidemia, arterial hypertension, hyperhomocysteinemia, and smoking, regular medication or treatment with drugs within the last 2 weeks, acute or chronic illness, and drug or alcohol abuse.
Next, Compound D as described herein (250 mg and 25 mg quinine sulphate) or placebo (25 mg quinine sulphate), both dissolved in water for injection and mint syrup, were administered as an oral solution. Quinine was added for blinding to mimic the bitter taste of Compound D and mint syrup to disguise the slightly yellowish colour as well as bitter taste. The infusion of Substance P (same dose as before study drug administration) was repeated at the following time points: 0.5 h, 1.25 h, 2 h, 2.75 h, 3.5 h, and 4.25 h after dosing. Each peptide application was separated by a wash-out phase of 45 min to avoid the occurrence of tolerance.
Venous blood samples for Compound D were taken 0.25 h before as well as 0.25 h, 0.5 h, 0.75 h, 1 h, 1.25 h, 2.0 h, 2.75 h, 3.5 h, 4.25 h, 6 h, 8 h, 12 h, and 24 h after administration. Blood was drawn into vials containing dry heparin, immediately stored on ice (+4° C.) and plasma was separated within 30 min at 3500 rpm for 10 min. The samples were stored at −20° C. until analysis. When time points of pharmacodynamic (hand vein compliance method) and pharmacokinetic measurements coincided the pharmacodynamic measurements were first finished before blood samples were taken, accepting a delay for pharmacokinetic sampling of about 5 min.
The plasma samples were then analyzed by extracting Compound D and its internal standard from plasma with diethylether, concentration and injection into an HPLC system with MS/MS detection. Accuracy and precision were within specifications; bias was <12%; the inter-day coefficient of variation was <14%. The lower limit of quantification was set at 0.2 ng/ml.
(§2) Source verification of all data documented in case report forms was performed by an independent clinical monitor. Nineteen individuals were randomized and thus included in the safety analysis. Only the randomized participants who completed both dosing sessions according to protocol were included in the pharmacodynamic analysis (n=17). Two participants had to be withdrawn due to methodological problems during hand vein measurements. One of these two was exposed to Compound D and complete pharmacokinetic data were obtained leading to data sets of 18 participants for pharmacokinetic analysis.
The area under the effect-time curve (AUCe) was calculated according to the trapezoidal rule. Statistical analysis of AUCe was performed using a mixed model analysis of variance (ANOVA) including the factors subject, sequence, period, and treatment. Pharmacokinetic calculations were performed using WinNonlin Professional 4.0.1 for Windows (Pharsight Corporation, Mountain View, Calif. 94040, USA). Differences in vital signs and dose-rates were assessed with Wilcoxon signed rank test, unless stated otherwise. Data are expressed as mean±SEM. A p-value of less than 0.05 was considered significant.

NK-1 receptor = target: T1, NK-1 receptor (Homo sapiens, UniProt P25103); test: Antagonism of Substance P-induced venodilation, dorsal hand vein compliance technique; type: in vivo
T1 construct: measuring the antagonism of Substance P-induced venodialation using the hand vein compliance technique; from tissue; host or cells: dorsal hand vein of healthy male volunteers, in vivo
Description: as §1
The participants abstained from alcohol for at least 24 hours and from methylxanthine-containing beverages for at least 12 hours before the measurements of hand vein compliance were made. […] Venodilator responses were investigated in a quiet room maintained at a constant temperature between 23 and 25° C. using the dorsal hand vein compliance technique according to Aellig (See W. H. Aellig, A new technique for recording compliance of human hand veins. 1981. Br J Clin Pharmacol 2004; 58:S768-74) with modifications as described previously (Fricker R, et al., Endothelial venodilator response in carriers of genetic polymorphisms involved in NO synthesis and degradation. Br J Clin Pharmacol 2004; 58:169-77).
Hand vein compliance measurements started in the morning and the participants were asked to remain in a supine position throughout the study. The hand under investigation was placed on a vacuum pillow sloping upwards at an angle of 30° from horizontal. All vasoactive compounds were administered through a butterfly needle at a constant flow rate (0.25 ml·min^−1) into the vein under investigation. In each participant, the same hand vein was used for both study phases. Changes of the diameter of the vein were recorded using a linear variable differential transformer (Schaevitz®, Type 100 MHR, Pennsauken, N.J., USA) with a freely movable core (weight 0.5 g) resting over the centre of the vein under investigation. Transformer signals were amplified by a Schaevitz® CAS series signal conditioner and the output was recorded on a strip-chart recorder (LKB 2210 recorder, LKB Produkter AB®, Bromma, Sweden) at a paper speed of 0.5 cm·min^−1. The difference between the position of the core before and during inflation of a sphygmomanometer cuff on the same upper arm to 40 mmHg gave a measure of the diameter changes under a given congestion pressure. Peak heights on the strip-chart recorder were linearly proportional to the movement of the core and were measured manually in units according to standard operating procedures.
After having installed the tripod for hand vein compliance technique and having established a stable initial baseline with […] defined as 100% relaxation, increasing dose-rates of the selective α1-adrenoceptor agonist phenylephrine (Neo-Synephrine®, Abbott Laboratories, North Chicago, USA; dosages: 1.25−≦8000 ng·min^−1) were locally infused to constrict the vein by about 80%. This preconstriction baseline was defined as 0%, and the effect of subsequently administered vasodilators was expressed in percentage changes from the difference between the initial baseline diameter during normal saline and the diameter during stable preconstriction.
Once preconstriction was stable, Substance P (Calbiochem/Novabiochem AG, Läufelfingen, Switzerland) was co-administered until the maximal venodilation was reached (approximately 7-10 minutes). To prevent the peptide from sticking to tubing and syringes, substance P was dissolved in a 4% gelatine solution. Based on the experience of previous experiments in this setting, a Substance P dose rate of (1.5 pmol/min) was selected. If a participant reacted with less than 50% venodilation to the dose of 1.5 pmol/min, the dose was doubled to 3 pmol/min.
Next, Compound D as described herein (250 mg and 25 mg quinine sulphate) or placebo (25 mg quinine sulphate), both dissolved in water for injection and mint syrup, were administered as an oral solution. […]

[2] = Safety assessment (ECG, pulse rate, blood pressure, laboratory, adverse events) in healthy male volunteers; type: in vivo, human
Description: Dose-rates administered locally into the hand vein were intended not to result in any systemic effects which were monitored by repeated measurements of heart rate and blood pressure. Blood pressure was taken before and after every infusion of drugs or solvents (sodium chloride, phenylephrine, Substance P); a 12-lead ECG was monitored continuously up to the end of the hand vein compliance measurements.
Safety was assessed by measuring ECG, pulse rate, blood pressure, haematology, blood chemistry, urinalysis, and by occurrence of adverse events.
as §2

[3] = 250 mg oral, among participants

T1 sequence (P25103 whole entry): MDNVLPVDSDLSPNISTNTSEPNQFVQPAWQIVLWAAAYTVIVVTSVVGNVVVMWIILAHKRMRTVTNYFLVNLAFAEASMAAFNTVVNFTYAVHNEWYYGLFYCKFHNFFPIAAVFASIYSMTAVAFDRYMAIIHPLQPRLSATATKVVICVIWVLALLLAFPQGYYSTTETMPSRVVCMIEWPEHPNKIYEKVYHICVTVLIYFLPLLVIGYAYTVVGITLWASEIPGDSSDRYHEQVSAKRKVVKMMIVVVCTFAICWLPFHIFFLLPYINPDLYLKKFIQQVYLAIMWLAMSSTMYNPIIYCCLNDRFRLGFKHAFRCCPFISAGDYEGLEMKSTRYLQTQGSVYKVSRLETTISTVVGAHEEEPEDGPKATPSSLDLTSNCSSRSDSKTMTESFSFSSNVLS

## O=C(c1cc(C(F)(F)F)cc(C(F)(F)F)c1)N1CCN(Cc2n[nH]nc2CN2CCOCC2)C[C@H]1Cc1c[nH]c2ccccc12 [Compound D, (2R)-1-[3,5-bis(trifluoromethyl)benzoyl]-2-(1H-indol-3-ylmethyl)-4-{[5-(morpholinomethyl)-2H-1,2,3-triazol-4-yl]methyl}piperazine-dihydrochloride]
[1]; 250 mg oral solution, single dose, 18 healthy participants, mean±SEM
  time to peak plasma concentration: ≤ 47 ± 3 min
[1]; 250 mg oral, 24 h after dosing, lower limit of quantification 0.2 ng/ml
  plasma detectability 24 h after dosing (terminal phase): still detectable in low concentrations in all participants
[1]; [3]
  ratio between maximal and minimal value for AUC (inter-individual variability): 6.3
  ratio between maximal and minimal value for Cmax (inter-individual variability): 6.5
[1]; male, human, plasma, 250 mg oral solution, single dose, 18 healthy participants, mean±SEM
  half-life: 9.9 ± 1.6 h
[1]; male, human, plasma, 250 mg oral solution, single dose, 18 healthy participants, mean±SEM, read-out: mean AUC0-∞
  AUC(0-inf): 183 ± 22 ng·h/mL
[1]; male, human, plasma, 250 mg oral solution, single dose, 18 healthy participants, mean±SEM, read-out: peak plasma concentration (Cmax)
  Cmax: 77 ± 9 ng/mL
NK-1 receptor; 2 μg/min SNP into hand vein after last Substance P infusion, not different from placebo (p=0.69)
  response to SNP (sodium nitroprusside) at the end of the experiment: 92±9%
NK-1 receptor; 250 mg oral, 17 healthy participants, mean±SEM, 95% CI 78, 111
  maximum antagonizing effect (% antagonism of Substance P-induced venodilation): 95±8%
NK-1 receptor; 250 mg oral, 17 healthy participants, p<0.001 vs placebo
  Substance P-induced venodilation after administration (versus placebo): markedly decreased
NK-1 receptor; 250 mg oral, 17 participants, mean±SEM, 95% CI 0.96, 1.98
  time of maximum antagonizing effect (mean): 1.47 ± 0.24 h
NK-1 receptor; 250 mg oral, 17 participants, mean±SEM, 95% CI 198, 358, p<0.001 vs placebo
  mean AUCe (area under the effect-time curve): 278±67 %·h
NK-1 receptor; 250 mg oral, 17 participants, median
  time of maximum antagonizing effect (median): 1.25 h
NK-1 receptor; 250 mg oral, up to 4.25 h after dosing, counter-clockwise hysteresis
  persistence of antagonistic effect relative to plasma concentration: antagonistic effect persisted throughout the study while plasma concentrations declined
[2]; 250 mg oral, 19 participants in safety analysis
  serious adverse events: No serious adverse event occurred
[2]; 250 mg oral, single dose
  changes in heart rate, blood pressure, or ECG parameters: Neither Compound D nor placebo induced significant changes
  tolerability: well tolerated in all participants
[2]; 250 mg oral, mild headache, severe headache, cloudy urine, all resolved
  adverse events possibly related to the study drug (number): 3
[2]; 4.5 h after administration (baseline 60±2; p=0.14)
  heart rate: 63±2 beats/min
[2]; 4.5 h after administration (baseline 68±3; p=0.12)
  diastolic blood pressure: 72±2 mmHg
[2]; 4.5 h after administration (baseline 124±3; p=0.10)
  systolic blood pressure: 127±2 mmHg
